Experimental data from BindingDB's records for doi:10.1021/jm00059a019 (Merck Research Laboratories, 1993).

Target: T1, Dimer of Gag-Pol polyprotein [489-587] (Human immunodeficiency virus 1, UniProt P12497)
T1 construct: 489-587
Assay: Protease Inhibition Assay
Settings: pH 5.5; 30 °C
Procedure: Sensitivity of HIV-1 protease activity to protease inhibitors was determined by a peptide substrate cleavage assay. Protease products were analyzed on a reverse-phase high-pressure liquid chromatograph.

Structure (SMILES)	IC50 [nM]
CC(C)(C)NC(=O)C1C[C@@H]2CCCC[C@@H]2CN1C[C@@H](O)[C@H](Cc1ccccc1)NC(=O)O[C@@H]1CCS(=O)(=O)C1 (stereo partly drawn) [(3R)-1,1-dioxo--thiolan-3-yl N-[(2S,3R)-4-[(4aS,8aS)-3-(tert-butylcarbamoyl)-decahydroisoquinolin-2-yl]-3-hydroxy-1-phenylbutan-2-yl]carbamate]	140
CC[C@@H]1[C@H](OC(=O)N[C@@H](Cc2ccccc2)[C@H](O)CN2C[C@H]3CCCC[C@H]3CC2C(=O)NC(C)(C)C)CCS1(=O)=O (stereo partly drawn) [(2R,3R)-2-ethyl-1,1-dioxo--thiolan-3-yl N-[(2S,3R)-4-[(4aS,8aS)-3-(tert-butylcarbamoyl)-decahydroisoquinolin-2-yl]-3-hydroxy-1-phenylbutan-2-yl]carbamate]	13.1
CC(C)(C)NC(=O)C1C[C@@H]2CCCC[C@@H]2CN1C[C@@H](O)[C@H](Cc1ccccc1)NC(=O)OCCS(C)(=O)=O (stereo partly drawn) [2-methanesulfonylethyl N-[(2S,3R)-4-[(4aS,8aS)-3-(tert-butylcarbamoyl)-decahydroisoquinolin-2-yl]-3-hydroxy-1-phenylbutan-2-yl]carbamate]	1030
C[C@@H]1OCC[C@@H]1OC(=O)N[C@@H](Cc1ccccc1)[C@H](O)CN1C[C@H]2CCCC[C@H]2CC1C(=O)NC(C)(C)C (stereo partly drawn) [(2S,3S)-2-methyloxolan-3-yl N-[(2S,3R)-4-[(4aS,8aS)-3-(tert-butylcarbamoyl)-decahydroisoquinolin-2-yl]-3-hydroxy-1-phenylbutan-2-yl]carbamate]	52.4
CC(C)(C)NC(=O)C1C[C@@H]2CCCC[C@@H]2CN1C[C@@H](O)[C@H](Cc1ccccc1)NC(=O)O[C@H]1CCS(=O)(=O)C1 (stereo partly drawn) [(3S)-1,1-dioxo--thiolan-3-yl N-[(2S,3R)-4-[(4aS,8aS)-3-(tert-butylcarbamoyl)-decahydroisoquinolin-2-yl]-3-hydroxy-1-phenylbutan-2-yl]carbamate]	75
CC(C)C[C@H]1[C@@H](OC(=O)N[C@@H](Cc2ccccc2)[C@H](O)CN2C[C@H]3CCCC[C@H]3CC2C(=O)NC(C)(C)C)CCS1(=O)=O (stereo partly drawn) [(2S,3S)-2-(2-methylpropyl)-1,1-dioxo--thiolan-3-yl N-[(2S,3R)-4-[(4aS,8aS)-3-(tert-butylcarbamoyl)-decahydroisoquinolin-2-yl]-3-hydroxy-1-phenylbutan-2-yl]carbamate]	12
CC[C@H]1[C@@H](OC(=O)N[C@@H](Cc2ccccc2)[C@H](O)CN2C[C@H]3CCCC[C@H]3CC2C(=O)NC(C)(C)C)CCS1(=O)=O (stereo partly drawn) [(2S,3S)-2-ethyl-1,1-dioxo--thiolan-3-yl N-[(2S,3R)-4-[(4aS,8aS)-3-(tert-butylcarbamoyl)-decahydroisoquinolin-2-yl]-3-hydroxy-1-phenylbutan-2-yl]carbamate]	5.4
CC(C)[C@@H]1[C@H](OC(=O)N[C@@H](Cc2ccccc2)[C@H](O)CN2C[C@H]3CCCC[C@H]3CC2C(=O)NC(C)(C)C)CCS1(=O)=O (stereo partly drawn) [(2R,3R)-1,1-dioxo-2-(propan-2-yl)--thiolan-3-yl N-[(2S,3R)-4-[(4aS,8aS)-3-(tert-butylcarbamoyl)-decahydroisoquinolin-2-yl]-3-hydroxy-1-phenylbutan-2-yl]carbamate]	3
C[C@H]1[C@@H](OC(=O)N[C@@H](Cc2ccccc2)[C@H](O)CN2C[C@H]3CCCC[C@H]3CC2C(=O)NC(C)(C)C)CCS1(=O)=O (stereo partly drawn) [(2S,3S)-2-methyl-1,1-dioxo--thiolan-3-yl N-[(2S,3R)-4-[(4aS,8aS)-3-(tert-butylcarbamoyl)-decahydroisoquinolin-2-yl]-3-hydroxy-1-phenylbutan-2-yl]carbamate]	11.4
CC(C)C[C@@H]1[C@H](OC(=O)N[C@@H](Cc2ccccc2)[C@H](O)CN2C[C@H]3CCCC[C@H]3CC2C(=O)NC(C)(C)C)CCS1(=O)=O (stereo partly drawn) [(2R,3R)-2-(2-methylpropyl)-1,1-dioxo--thiolan-3-yl N-[(2S,3R)-4-[(4aS,8aS)-3-(tert-butylcarbamoyl)-decahydroisoquinolin-2-yl]-3-hydroxy-1-phenylbutan-2-yl]carbamate]	30
CC(C)[C@H]1[C@@H](OC(=O)N[C@@H](Cc2ccccc2)[C@H](O)CN2C[C@H]3CCCC[C@H]3CC2C(=O)NC(C)(C)C)CCS1(=O)=O (stereo partly drawn) [hydroxyethylene isostere]	11
C[C@H]1OCC[C@H]1OC(=O)N[C@@H](Cc1ccccc1)[C@H](O)CN1C[C@H]2CCCC[C@H]2CC1C(=O)NC(C)(C)C (stereo partly drawn) [(2R,3R)-2-methyloxolan-3-yl N-[(2S,3R)-4-[(4aS,8aS)-3-(tert-butylcarbamoyl)-decahydroisoquinolin-2-yl]-3-hydroxy-1-phenylbutan-2-yl]carbamate]	169
C[C@@H]1[C@H](OC(=O)N[C@@H](Cc2ccccc2)[C@H](O)CN2C[C@H]3CCCC[C@H]3CC2C(=O)NC(C)(C)C)CCS1(=O)=O (stereo partly drawn) [hydroxyethylene isostere]	22.3
